Data: PubChem BioAssay (NCI)
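Growth conditions: 96-well plates. Treatment: test compound, 48 hours, 5 concentrations. Analysis: linear interpolation between bracketing concentrations; unreached endpoints set to highest concentration. At the GI50, growth is halved. TGI denotes the concentration required for complete inhibition of growth.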

Assays:
Assay in all cases: NCI anticancer screen, dose series, 48 h
[1] = system: HCT-15 colon
[2] = system: NCI-H226 lung
[3] = system: SF-268 CNS
[4] = system: SF-295 CNS
[5] = system: SK-MEL-2 melanoma
[6] = system: UACC-257 melanoma
[7] = system: UACC-62 melanoma
[8] = system: 786-0 renal
[9] = system: HOP-62 NSCLC
[10] = system: NCI/ADR-RES ovarian
[11] = system: PC-3 prostate

SMILES	TGI [1]	TGI [2]	TGI [3]	TGI [4]	GI50 [5]	TGI [5]	TGI [6]	TGI [7]	TGI [8]	TGI [9]	TGI [10]	TGI [11]	GI50 [1]	GI50 [2]	GI50 [10]	GI50 [11]	GI50 [4]	GI50 [6]	GI50 [7]
O=C(N/N=C/c1cc(Cl)cc(Cl)c1[O-])c1ccccc1O.O=C(N/N=C/c1cc(Cl)cc(Cl)c1[O-])c1ccccc1O.[Mn+2]	14.1 µM	6.59 µM	11.5 µM	11.8 µM	0.285 µM	11.3 µM	11.9 µM	0.804 µM											
COc1ccc2[nH]c(=O)cc(C)c2c1[N+](=O)[O-]	> 100 µM	> 100 µM	> 100 µM	> 100 µM		> 100 µM	> 100 µM	> 100 µM	> 100 µM	> 100 µM									
Cc1ccnn1CCc1ccc(Cl)cc1Cl	> 100 µM		> 100 µM	52.9 µM			> 100 µM	29.1 µM		32.5 µM	> 100 µM	> 100 µM							
Nc1nc(N)c2ncn(Cc3ccccc3CO)c2n1	> 100 µM	> 100 µM	> 100 µM	> 100 µM		> 100 µM	> 100 µM	> 100 µM	> 100 µM	> 100 µM	> 100 µM	> 100 µM							
CSc1nc2c(ncn2C2OC(CO)C(O)C(O)C2O)c(=O)n1C (centres undefined)	> 100 µM	> 100 µM	> 100 µM	> 100 µM		> 100 µM	> 100 µM	> 100 µM		> 100 µM	> 100 µM								
COc1cccc(/C=N/[N+](C)(C)C)c1O	> 10 µM	> 10 µM	> 10 µM	> 10 µM		> 10 µM	> 10 µM	> 10 µM	> 10 µM	> 10 µM	> 10 µM	> 10 µM							
O=C1Nc2ccccc2C1(O)Cc1ccccn1 (centres undefined)	> 100 µM	> 100 µM	> 100 µM	> 100 µM		> 100 µM	> 100 µM	> 100 µM	> 100 µM	> 100 µM	> 100 µM	> 100 µM							
COc1cc(C2c3cc4c(cc3[C@@H](Nc3cnc5ccccc5c3)C3COC(=O)[C@H]23)OCO4)cc(OC)c1O (some centres undefined)	1.31 µM	1.23 µM	3.9 µM	1.14 µM		3.58 µM	6.64 µM	2.06 µM		0.481 µM	7.93 µM								
O=c1c2cc([N+](=O)[O-])ccc2[nH]n1Cc1ccccc1Cl	> 100 µM	> 100 µM	> 100 µM	> 100 µM			> 100 µM	> 100 µM	> 100 µM	> 100 µM	> 100 µM	> 100 µM							
C=C1C(=O)OC2/C=C(CO)/C=C\C3OC3(C)CC(OC(=O)/C(C)=C/COC(C)=O)C12 (centres undefined)	4.27 µM	27.7 µM	15.4 µM	28.3 µM		7.88 µM	6.59 µM	4.96 µM	4.36 µM	35.5 µM	15.8 µM	21.6 µM							
C=CCn1c(C)nc2cc(Nc3nc(N4CCCC4)nc4nc[nH]c34)ccc21	> 100 µM	> 100 µM		> 100 µM	> 100 µM	> 100 µM	> 100 µM	> 100 µM			> 100 µM	> 100 µM	> 100 µM	> 100 µM	> 100 µM	> 100 µM	> 100 µM	> 100 µM	> 100 µM
COc1cc2c(/C=C3/C(=O)Nc4cc(C)c(O)cc43)c(Cl)[nH]c2cc1C	13.5 µM	23.6 µM	31.9 µM	5.07 µM		23.9 µM	19.6 µM	8.77 µM	8.91 µM	10.9 µM	12.8 µM	21.9 µM							
O=C1C=CC2(C=C1)O[C@H](CCc1ccccc1)[C@@H](CCc1ccccc1)O2	> 100 µM	> 100 µM	> 100 µM	> 100 µM		> 100 µM	> 100 µM	> 100 µM	> 100 µM	> 100 µM	> 100 µM	> 100 µM							
COc1cnc2oc3ccc(O)cc3c2c1-c1ccccc1	> 100 µM		> 100 µM	> 100 µM		> 100 µM	> 100 µM		> 100 µM	> 100 µM	> 100 µM	> 100 µM							
O=C(O)C(C1NCCS1)N1C(=O)c2ccccc2C1=O (centres undefined)	> 100 µM	> 100 µM	> 100 µM	> 100 µM		> 100 µM	> 100 µM	> 100 µM	> 100 µM	> 100 µM	> 100 µM	> 100 µM							
CC1=CC2=C(C=O)C(=O)[C@](C)(O)[C@@H](O)C2=CO1	> 100 µM	65.4 µM	> 69.4 µM	> 100 µM		62.2 µM	> 100 µM	71.5 µM		69 µM	> 100 µM								
C=C1C(=O)OC2/C=C(\CO)C3OC3C3OC3(C)CC(OC(=O)/C(=C/C)COC(C)=O)C12 (centres undefined)	6.47 µM	40.8 µM	27.1 µM	46.7 µM		6.78 µM	12.6 µM	6.2 µM	5.36 µM	40.4 µM	41.8 µM	27 µM							
COc1ccc(C(=O)c2[nH]c(Nc3cc(C)ccn3)c(C(=S)Nc3ccccc3)c2N)cc1	55.9 µM	47.3 µM	68.2 µM	49.5 µM		24.2 µM	32.7 µM	26.7 µM	49.7 µM	72.2 µM	24.3 µM	> 100 µM							
Cc1c2cnccc2c(C)c2c1c1ccccc1n2CCCCCCCl	> 50 µM	> 46.7 µM	> 50 µM	> 50 µM		> 50 µM	> 50 µM	> 50 µM		> 50 µM	> 50 µM								
O=C1Sc2sc(=S)sc2SC1c1ccccc1 (centres undefined)	36.8 µM	> 100 µM	> 100 µM	> 100 µM		> 100 µM	> 100 µM	57.2 µM		> 100 µM	> 100 µM								
